Experimental data reported in paper PMC10534581 (Pharmaceutics, 2023).

What was measured:
[1] = cited from earlier work
patients = system: patients; design: method as in PMID 19723786, PMID 19934760; conditions: cited from earlier work
children and adolescents [2] = test: Treatment response on Clinical Global Impression-Improvement (CGI-I); format: in vivo, human
Protocol: On the day of blood collection, treatment responses were measured using the Clinical Global Impression (CGI) Scale (Improvement, CGI-I), which clinicians were instructed to rate solely based on the effects of the drug. […] This instrument was specifically designed to quantify the severity of 56 signs of adverse events occurring in pediatric patients under treatment with a psychotropic drug. The 56 items were rated on a Likert scale with 'none', 'slight', 'moderate', 'severe', and 'extremely severe' responses. The maximal severity on any of the items was considered in this study. […] Additionally, indications for the TDM measurement, detailed information on concomitant medications, nicotine use, weight, and height were also recorded. […] All statistical analyses were performed using R (R Foundation for Statistical Computing) version 4.1.1. The alpha level for all analyses was set to 0.05. To maximize the comparability of the conclusions from the dataset generated in this study, the main analyses were performed with both the last valid timepoint, as in previous relevant studies, and with all the valid timepoints, as detailed in the next paragraph. […] In addition to the simple linear regressions, multiple linear regressions were performed with four additional hypothesized predictors: age (years), sex (male/female), body weight (kg), and smoking status (yes/no). The variance inflation factor (VIF) was evaluated as a measure of multicollinearity. Both regressions were compared based upon model fit. Second, proportional odds models using the clm (cumulative link models) function in the 'ordinal' R package were fitted to examine the serum concentrations as predictors of clinical effects (measured by CGI-I) and adverse effects (measured by PAERS-maximal severity). […] The analyses were repeated with an extended set of hypothesized predictors. For CGI-I, these were age, sex, psychotropic co-medication (i.e., antipsychotic and antidepressant drug), and diagnostic comorbidity (i.e., a single diagnosis versus multiple diagnoses). For PAERS, the predictors were age, sex, and psychotropic co-medication. The proportional odds assumptions in these statistics were verified with likelihood ratio tests using the nominal_test and scale_test functions, while model convergence was tested with the convergence function. […] The clmm (cumulative link mixed models) function from the 'ordinal' package was used to test the impact of metabolite level on clinical and adverse effects with CGI-I and […] […] The model with multiple predictors included the variables, as in the single timepoint analyses, as well as the data collection time (i.e., days from the baseline timepoint). To determine a possible concentration threshold of efficacy, receiver operating curve (ROC) analyses were performed based on a binary logistic regression, and the optimal cutoff was calculated by finding an optimal trade-off between sensitivity and specificity. […] The last valid datapoints were included in these analyses as deemed most appropriate. Transdiagnostic responders and responders with depression ([…].X and […].X) were considered separately.

children and adolescents [3] = test: Adverse effects on Pediatric Adverse Event Rating Scale (PAERS), maximal severity; format: in vivo, human; conditions: n = 134 (4 missing); for patients with PAERS max. severity 'none' (no adverse effects): FLX 10–40 mg/day
Protocol: On the day of blood collection, treatment responses were measured using the Clinical Global Impression (CGI) Scale (Improvement, CGI-I), which clinicians were instructed to rate solely based on the effects of the drug. […] This instrument was specifically designed to quantify the severity of 56 signs of adverse events occurring in pediatric patients under treatment with a psychotropic drug. The 56 items were rated on a Likert scale with 'none', 'slight', 'moderate', 'severe', and 'extremely severe' responses. The maximal severity on any of the items was considered in this study. […] Additionally, indications for the TDM measurement, detailed information on concomitant medications, nicotine use, weight, and height were also recorded. […] All statistical analyses were performed using R (R Foundation for Statistical Computing) version 4.1.1. The alpha level for all analyses was set to 0.05. To maximize the comparability of the conclusions from the dataset generated in this study, the main analyses were performed with both the last valid timepoint, as in previous relevant studies, and with all the valid timepoints, as detailed in the next paragraph. […] As not all the assumptions were met by the original data, a square-root transformation was applied to the outcome variables. In addition to the simple linear regressions, multiple linear regressions were performed with four additional hypothesized predictors: age (years), sex (male/female), body weight (kg), and smoking status (yes/no). The variance inflation factor (VIF) was evaluated as a measure of multicollinearity. Both regressions were compared based upon model fit. Second, proportional odds models using the clm (cumulative link models) function in the 'ordinal' R package were fitted to examine the serum concentrations as predictors of clinical effects (measured by CGI-I) and adverse effects (measured by PAERS-maximal severity). As there was only a single 'very severe' PAERS response, 'very severe' and 'severe' responses were pooled together. The analyses were repeated with an extended set of hypothesized predictors. For CGI-I, these were age, sex, psychotropic co-medication (i.e., antipsychotic and antidepressant drug), and diagnostic comorbidity (i.e., a single diagnosis versus multiple diagnoses). For PAERS, the predictors were age, sex, and psychotropic co-medication. The proportional odds assumptions in these statistics were verified with likelihood ratio tests using the nominal_test and scale_test functions, while model convergence was tested with the convergence function. […] The clmm (cumulative link mixed models) function from the 'ordinal' package was used to test the impact of metabolite level on clinical and adverse effects with CGI-I and […] […]

[4] = Steady-state trough serum concentration (TDM, HPLC with UV detection); format: in vivo, human; conditions: for Est. of Dose on square-root serum concentration, multiple linear regression / Est. of Body weight on square-root serum concentration, multiple linear regression: Model 1, last datapoint, sex, smoking; for Est. of Dose on square-root serum concentration, multiple linear regression: covariates age, body weight; for Est. of Body weight on square-root serum concentration, multiple linear regression: covariates dose, age; for Est. of Body weight on square-root serum concentration, linear mixed effect model / Est. of Dose on square-root serum concentration, linear mixed effect model: Model 2, all datapoints, multiple predictors incl. time; for β of daily dose on square-root serum concentration, linear mixed-effect model: all datapoints, dose as only fixed predictor; for steady-state serum concentration, range / mean steady-state serum concentration, mean (SD): children and adolescents n = 138, last datapoint; for steady-state serum concentration, range: FLX 10–40 mg/day; for mean steady-state serum concentration, mean (SD): FLX 10–40 mg/day (mean 19.93 mg); for β of daily dose (mg) on square-root serum concentration, simple linear regression: last datapoints
Protocol: The study spanned three different routine healthcare settings, including inpatient, outpatient, and day-treatment units. […] All dosing steps were recorded along with corresponding dates in the medication protocol. […] Depending on the clinical course, additional visit times were possible.
TDM analysis was conducted according to the guidelines of the Working Group on Neuropsychopharmacology and Pharmacopsychiatry (AGNP) consensus. Blood samples were collected from cubital veins into 7.5-mL monovettes without any additives or anticoagulants at a steady-state trough level. The samples were immediately analyzed (in the case of samples from Wuerzburg, Germany) or analyzed after being received by the TDM laboratory in Wuerzburg, Germany, shipped by regular mail. […] Each analytical series included internal quality control samples, and external control samples were analyzed quarterly. The laboratory responsible for the analysis is certified by a quality control program (https://www.instand-ev.de, accessed on 2 July 2023; https://www.ukw.de/psychiatrie/zuweisende-kolleginnen-und-kollegen/tdm-labor/zertifikate/, accessed on 2 July 2023). Analytical grade chemicals and solvents were procured from Sigma-Aldrich Chemie GmbH (Taufkirchen, Germany).
All statistical analyses were performed using R (R Foundation for Statistical Computing) version 4.1.1. The alpha level for all analyses was set to 0.05. To maximize the comparability of the conclusions from the dataset generated in this study, the main analyses were performed with both the last valid timepoint, as in previous relevant studies, and with all the valid timepoints, as detailed in the next paragraph. […] The model assumptions were verified by means of the semi-automated diagnostic functions in the ‘gvlma’ (Global Validation of Linear Models Assumptions) R package, including evaluation of global statistics, skewness, kurtosis, link function, and heteroscedasticity parameters and inspection of the related plots. […] In addition to the simple linear regressions, multiple linear regressions were performed with four additional hypothesized predictors: age (years), sex (male/female), body weight (kg), and smoking status (yes/no). The variance inflation factor (VIF) was evaluated as a measure of multicollinearity. Both regressions were compared based upon model fit. Second, proportional odds models using the clm (cumulative link models) function in the ‘ordinal’ R package were fitted to examine the serum concentrations as predictors of clinical effects (measured by CGI-I) and adverse effects (measured by PAERS—maximal severity). […] The analyses were repeated with an extended set of hypothesized predictors. For CGI-I, these were age, sex, psychotropic co-medication (i.e., antipsychotic and antidepressant drug), and diagnostic comorbidity (i.e., a single diagnosis versus multiple diagnoses). For PAERS, the predictors were age, sex, and psychotropic co-medication. The proportional odds assumptions in these statistics were verified with likelihood ratio tests using the nominal_test and scale_test functions, while model convergence was tested with the convergence function.
The model with multiple predictors included the variables, as in the single timepoint analyses, as well as the data collection time (i.e., days from the baseline timepoint).
To determine a possible concentration threshold of efficacy, receiver operating curve (ROC) analyses were performed based on a binary logistic regression, and the optimal cutoff was calculated by finding an optimal trade-off between sensitivity and specificity.

CYP2D6 = conditions: cited from earlier work
[5] = postmortem studies and case reports; cited from earlier work
[6] = Responders Transdiagnostic n = 64
[7] = Responders with Depression n = 44

SMILES	half-life [1] [h]	Est. of Dose on square-root serum concentration, multiple linear regression [4]	Est. of Body weight on square-root serum concentration, multiple linear regression [4]	Est. of Body weight on square-root serum concentration, linear mixed effect model [4]	Est. of Dose on square-root serum concentration, linear mixed effect model [4]	serum concentration of responders, M+1SD (mean plus 1 standard deviation) [4, 6] [ng/mL]	serum concentration of responders, M-1SD (mean minus 1 standard deviation) [4, 6] [ng/mL]	serum concentration of responders, Q1 (first interquartile) [4, 6] [ng/mL]	serum concentration of responders, Q3 (third interquartile) [4, 6] [ng/mL]	serum concentration of responders, M+1SD (mean plus 1 standard deviation) [4, 7] [ng/mL]	serum concentration of responders, M-1SD (mean minus 1 standard deviation) [4, 7] [ng/mL]	serum concentration of responders, Q1 (first interquartile) [4, 7] [ng/mL]	serum concentration of responders, Q3 (third interquartile) [4, 7] [ng/mL]	β of daily dose on square-root serum concentration, linear mixed-effect model [4]	steady-state serum concentration, range [4] [ng/mL]	mean steady-state serum concentration, mean (SD) [4] [ng/mL]	β of daily dose (mg) on square-root serum concentration, simple linear regression [4]	binding affinity to CYP2D6 (CYP2D6)	further results
CNCCC(Oc1ccc(C(F)(F)F)cc1)c1ccccc1 (centres unmarked) [FLX, Fluoxetine]	96 to 140	0.24	−0.07	−0.07	0.34	191.29	57.97	73	155	181.19	62.51	69.5	156.25	0.31	17 to 396	123.66 ± 65.17	0.18	high binding affinity	absorption after oral administration [1]: almost completely absorbed; bioavailability ([1]; oral, reduced by hepatic first-pass metabolism): less than 90%; patients who do not respond to pharmacologic monotherapy (patients): 40–60%; patients with CGI-I 'minimally improved' (children and adolescents [2]; n = 138, FLX 10–40 mg/day): 60 (43.5%); patients with CGI-I 'minimally worse' (children and adolescents [2]; n = 138, FLX 10–40 mg/day): 3 (2.2%); patients with CGI-I 'much worse' (children and adolescents [2]; n = 138, FLX 10–40 mg/day): 2 (1.4%); patients with CGI-I 'no change' (children and adolescents [2]; n = 138, FLX 10–40 mg/day): 8 (5.8%); patients with CGI-I 'very much worse' (children and adolescents [2]; n = 138, FLX 10–40 mg/day): 0 (0%); patients with CGI-I 'minimally improved' (children and adolescents [2]; n = 138, FLX 10–40 mg/day, listed as fluoxetine): 43.5%; patients with marked improvement (children and adolescents [2]; n = 138, much improved plus very much improved): 45.6%; patients with PAERS max. severity 'extremely severe' (children and adolescents [3]): 1 (0.7%); patients with PAERS max. severity 'severe' (children and adolescents [3]): 2 (1.5%); patients with PAERS max. severity 'none' (no adverse effects) (children and adolescents [3]): 87 (64.9%); patients with PAERS max. severity 'none' (no adverse effects) (children and adolescents [3]; listed as fluoxetine): 64.9%; inhibition of CYP2D6 (CYP2D6): potent inhibitor; serum levels in fatal overdoses [5]: 1300 to 7000 ng/mL
NCCC(Oc1ccc(C(F)(F)F)cc1)c1ccccc1 (centres unmarked) [NORFLX, Norfluoxetine]	96 to 360	0.21	−0.05	−0.05	0.26	218.24	85.28	102.5	186	223.57	78.88	98.75	184.25	0.25	21 to 339	144.74 ± 65.93	0.19	high binding affinity	relationship between serum level and therapeutic effect (CGI-I) (children and adolescents [2]; ordinal regressions): no significant relationship
